The values below come from patent US6387406B1, “Copolymer compositions for oral delivery” (Supratek Pharma Inc., priority 1992, dated 2002).

Values after ≈ are worked out from the molar mass of the structure shown. Where two headings read alike, the source gives them in different places.

Series [1] concerns SKVLB cell line (SK-resistant cells). The series can be described thus: XTT cytotoxicity on SK-resistant cells. The class given is cell-based, human. To be noted: for IC50: Homo sapiens. For orientation: Tetrazolium assays rely on reduction of a dye to a coloured formazan, in cell work by metabolically active cells.
For series [2], the system named is SKOV3 line of transformed cells (SK cells). The series can be described thus: Cytotoxicity on SK cells. The class given is cell-based, human. Conditions: free drug.
The subject of series [3] is DBA/2 mice.
Series [4] relates to neuroleptic effect as monitored behaviorally. The series can be described thus: Minimum neuroleptic dose (MND). The class given is in vivo. To be noted: control preparation. As for the experimental part: The minimum neuroleptic dose (MND) was determined for each preparation. The minimum neuroleptic dose is defined as the minimum dose that caused a neuroleptic effect as monitored behaviorally. See, Kabanov et al., FEBS Lett. 258: 343-345, 1989. The MND for the copolymer-containing preparation was 0.02 mg/kg, while that of the control preparation was 2 mg/kg. The ratio of LD95/MND was 50 for the copolymer preparation and 5 for the control preparation.

Series [5] deals with DBA/2 mice. Conditions: ±S.D.
The test system of a further series is BALB/c male mice. To be noted: mouse, in vivo, ip.
A further series concerns glucose level in plasma. The series can be described thus: Insulin-induced hypoglycemia, s.c. or p.o. Type of series: in vivo, Balb/c mice. As for the experimental part:
Hypoglycemia induced by high doses of insulin in mice was used as biological response criteria. The drug activity was evaluated by analyzing the glucose level in plasma versus time following drug administration. Isotonic solutions of free insulin (Ins) or insulin formulated with POE-POP block copolymer (“SP1-Ins”) were given to Balb/c mice at the same doses either s.c. or p.o.
Female six-week-old Balb/c mice (six animals per time point) were administered s.c. or p.o. with sterile 100 μl per 20 g of body weight (5 ml/kg) of Insulin or SP1-Insulin solutions, and the same volumes of isotonic solution were given to the control group of animals. Both Insulin and SP1-Insulin injections contained 0.02 mg/ml of insulin with activity of 27.3 μ/mg.
The animals were sacrificed after various time intervals (0.5-6 hr; post-administration), plasma samples were collected, and glucose levels were analyzed by standard glucosoxidase-peroxidase method. The statistical significance was analyzed by the multiple range text of Duncan-Kramer.

The mark [6] stands for this setting: control preparation, solution in RPMI 1640.
Setting [7] is: Example 10: 10% of LD95 i.p., stearoylated insulin-targeted micelles vs free drug.

`CO[C@@]12[C@H](COC(N)=O)C3=C(C(=O)C(C)=C(N)C3=O)N1C[C@@H]1N[C@@H]12` [mitomycin C]: in series [1] (free drug), the “IC50 against SK-resistant cells” value was determined as 1.120 µg/mL (≈ 3.35 µM). The “IC50 against SK cells” value in series [2] is 0.320 µg/mL (≈ 0.957 µM).

As to `CN1CCN(CCCN2c3ccccc3Sc3ccc(C(F)(F)F)cc32)CC1` [Trifluorperazine], in the series with DBA/2 mice [3] (setting [6]), the LD95 was found to be 10 mg/kg body weight. Further, in series [4], the “minimum neuroleptic dose (MND)” value is 2 mg/kg and the “ratio of LD95/MND” value was 5.

For the compound `CN(Cc1cnc2nc(N)nc(N)c2n1)c1ccc(C(=O)N[C@@H](CCC(=O)O)C(=O)O)cc1` [methotrexate], the IC50 (usually the concentration that gives 50% inhibition) in series [1] (free drug, read-out: IC50 against SK-resistant cells) turned out to be 1.34 µg/mL (≈ 2.95 µM).

For `O=C(CCCN1CCC(O)(c2ccc(Cl)cc2)CC1)c1ccc(F)cc1` [haloperidol], in the series with DBA/2 mice [3] (i.p., without the Pluronic vehicle), the LD95 is 75 mg/kg. Besides, the Horizontal mobility came out at 204.6 ± 24% in the series with DBA/2 mice [5] (Example 7: 10% of LD95 i.p., antibody-targeted micelles vs free drug) and 180.1 ± 26% in the series with DBA/2 mice [5] (setting [7]). The compound also showed a Grooming in the series with DBA/2 mice [5] (setting [7]) of 1656.4 ± 6.5%.

Take `COc1cccc2c1C(=O)c1c(O)c3c(c(O)c1C2=O)C[C@@](O)(C(=O)CO)C[C@@H]3O[C@H]1C[C@H](N)[C@H](O)[C@H](C)O1` [Free doxorubicin, doxorubicin]: the IC50 in series [1] is 60 µg/mL (≈ 110 µM).

On to Pluronic P85, for which, in the series on BALB/c male mice, the “MTD” value was 0.2 g/kg.

Regarding `CCN1CCCC1CNC(=O)c1cc(S(N)(=O)=O)ccc1OC` (stereo not shown) [Sulpiride], in the series with DBA/2 mice [3] (setting [6]), the LD95 stood at 100 mg/kg body weight.

As for Insulin, the “changes in plasma glucose level” value in the series with glucose level in plasma (p.o., in words) is “only minor changes”. Besides, the “time to return to the normal glucose level” value in the series with glucose level in plasma (s.c.) is “about 6 hours”. Also, the “glucose level in plasma” value in the series with glucose level in plasma (s.c., 3 hours after administration) is reported as “about 15 % of the normal level”.
